From PubChem BioAssay AID256 (DTP/NCI, 2004)
Values joined by “and” are separate entries in the source; they are usually repeats but may differ in a detail not shown here. Identical values can stand only once. Inconclusive results and toxic doses are left out. The calls were made as follows: active = survival T/C of 150% or more; inactive = T/C below 125% in these data.

Tested on: CD2F1 mice, L1210 leukemia ip, survival T/C
Experiment: NCI In Vivo Anticancer Drug Screen. Data for tumor model L1210 Leukemia (intraperitoneal) in CD2F1 (CDF1) mice
Details: higher = longer survival
Method in brief: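 Vehicle-treated tumor-bearing mice served as controls (C) for compound-treated mice (T). Reported figure is T divided by C.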

[1] = endpoint: mean survival time, dose: 100.0 mg/kg/injection, schedule: Q01DX009 (ip), vehicle: saline
[2] = endpoint: mean survival time, dose: 100.0 mg/kg/injection, schedule: Q01DX009 (ip), vehicle: saline with Tween-80
[3] = endpoint: mean survival time, dose: 200.0 mg/kg/injection, schedule: Q01DX009 (ip), vehicle: saline with Tween-80
[4] = endpoint: mean survival time, dose: 400.0 mg/kg/injection, schedule: Q01DX009 (ip), vehicle: saline with Tween-80
[5] = endpoint: mean survival time, dose: 50.0 mg/kg/injection, schedule: Q01DX009 (ip), vehicle: Klucel (hydroxypropylcellulose) (HPC)
[6] = endpoint: mean survival time, dose: 100.0 mg/kg/injection, schedule: Q01DX009 (ip), vehicle: Klucel (hydroxypropylcellulose) (HPC)
[7] = endpoint: mean survival time, dose: 200.0 mg/kg/injection, schedule: Q01DX009 (ip), vehicle: Klucel (hydroxypropylcellulose) (HPC)
[8] = endpoint: median survival time, dose: 12.5 mg/kg/injection, schedule: Q01DX009 (ip), vehicle: saline with Tween-80
[9] = endpoint: median survival time, dose: 25.0 mg/kg/injection, schedule: Q01DX009 (ip), vehicle: saline with Tween-80
[10] = endpoint: median survival time, dose: 50.0 mg/kg/injection, schedule: Q01DX009 (ip), vehicle: saline with Tween-80
[11] = endpoint: mean survival time, dose: 100.0 mg/kg/injection, schedule: Q04DX003 (ip), vehicle: saline with Tween-80
[12] = endpoint: mean survival time, dose: 100.0 mg/kg/injection, schedule: Q04DX002 (ip), vehicle: saline with Tween-80
[13] = endpoint: mean survival time, dose: 200.0 mg/kg/injection, schedule: Q04DX002 (ip), vehicle: saline with Tween-80

Measured: T/C

CC#CC(C)=O
inactive: endpoint: mean survival time, dose: 25.0 mg/kg/injection, schedule: Q01DX009 (ip), vehicle: saline 93 % of control | endpoint: mean survival time, dose: 50.0 mg/kg/injection, schedule: Q01DX009 (ip), vehicle: saline 96 % of control | [1] 97 % of control

Clc1ccc(COCc2ccccc2Cn2ccnc2)cc1
inactive: endpoint: mean survival time, dose: 25.0 mg/kg/injection, schedule: Q01DX009 (ip), vehicle: saline with Tween-80 98 % of control | endpoint: mean survival time, dose: 50.0 mg/kg/injection, schedule: Q01DX009 (ip), vehicle: saline with Tween-80 104 % of control | [2] 96 % of control and 105 % of control

Nc1ccc(Cl)cc1N
inactive: endpoint: mean survival time, dose: 25.0 mg/kg/injection, schedule: Q01DX009 (ip), vehicle: other 96 % of control | endpoint: mean survival time, dose: 50.0 mg/kg/injection, schedule: Q01DX009 (ip), vehicle: other 102 % of control | endpoint: mean survival time, dose: 75.0 mg/kg/injection, schedule: Q01DX009 (ip), vehicle: other 107 % of control | endpoint: mean survival time, dose: 100.0 mg/kg/injection, schedule: Q01DX009 (ip), vehicle: other 106 % of control | endpoint: mean survival time, dose: 150.0 mg/kg/injection, schedule: Q01DX009 (ip), vehicle: other 112 % of control

CC(C)(C)CC(C)(C)c1ccc(OCCOc2ccccc2NC(=O)c2ccc3ccccc3c2O)cc1
inactive: [2] 94 % of control | [3] 93 % of control | [4] 94 % of control

CNC1=C(C)C(=O)C2=C(C1=O)C(COC(N)=O)C1(O)C3C(CN21)N3C (stereo not drawn)
inactive: endpoint: mean survival time, dose: 1.5 mg/kg/injection, schedule: Q01DX001 (ip), vehicle: water 98 % of control | endpoint: mean survival time, dose: 3.0 mg/kg/injection, schedule: Q01DX001 (ip), vehicle: water 100 % of control | endpoint: mean survival time, dose: 6.0 mg/kg/injection, schedule: Q01DX001 (ip), vehicle: water 100 % of control | endpoint: mean survival time, dose: 12.0 mg/kg/injection, schedule: Q01DX001 (ip), vehicle: water 100 % of control | endpoint: mean survival time, dose: 24.0 mg/kg/injection, schedule: Q01DX001 (ip), vehicle: water 98 % of control | endpoint: mean survival time, dose: 48.0 mg/kg/injection, schedule: Q01DX001 (ip), vehicle: water 115 % of control | endpoint: mean survival time, dose: 96.0 mg/kg/injection, schedule: Q01DX001 (ip), vehicle: water 108 % of control

CN(C)c1ccc(N=Nc2ccc(C(=O)Cl)cc2)cc1
inactive: [5] 98 % of control | [6] 91 % of control | [7] 94 % of control

CC(=O)OC1CCC2(C)C(=CCC3C2CCC2(C)C(C(C)CCCC(C)C)CCC32)C1 (stereo not drawn)
inactive: [5] 96 % of control | [6] 93 % of control | [7] 86 % of control

NC(C(=O)O)c1ccc(CBr)cc1 (stereo not drawn)
inactive: endpoint: median survival time, dose: 3.12 mg/kg/injection, schedule: Q01DX009 (ip), vehicle: saline with Tween-80 108 % of control | endpoint: median survival time, dose: 6.25 mg/kg/injection, schedule: Q01DX009 (ip), vehicle: saline with Tween-80 116 % of control and 100 % of control and 112 % of control | [8] 113 % of control and 121 % of control and 105 % of control | [9] 116 % of control and 103 % of control | [10] 121 % of control and 108 % of control

CCC(CC)CN1CCSC1=S
inactive: [2] 101 % of control | [3] 101 % of control | [4] 96 % of control

Nc1ccc2c(c1)CN1C(=O)c3ccccc3C1=N2
inactive: [8] 111 % of control | [9] 115 % of control | [10] 116 % of control | endpoint: median survival time, dose: 100.0 mg/kg/injection, schedule: Q01DX009 (ip), vehicle: saline with Tween-80 108 % of control

Oc1c(Br)cc(Br)cc1/C=N/c1nc(-c2ccccc2)cs1.Oc1c(Br)cc(Br)cc1/C=N/c1nc(-c2ccccc2)cs1.[Co]
inactive: endpoint: mean survival time, dose: 25.0 mg/kg/injection, schedule: Q01DX001 (ip), vehicle: saline 100 % of control | endpoint: mean survival time, dose: 50.0 mg/kg/injection, schedule: Q01DX001 (ip), vehicle: saline 100 % of control | endpoint: mean survival time, dose: 100.0 mg/kg/injection, schedule: Q01DX001 (ip), vehicle: saline 87 % of control

CC(C)(C)N1CCC1C(O)c1ccccc1 (stereo not drawn)
inactive: endpoint: mean survival time, dose: 25.0 mg/kg/injection, schedule: Q04DX003 (ip), vehicle: saline with Tween-80 100 % of control | endpoint: mean survival time, dose: 50.0 mg/kg/injection, schedule: Q04DX003 (ip), vehicle: saline with Tween-80 102 % of control | endpoint: mean survival time, dose: 100.0 mg/kg/injection, schedule: Q01DX001 (ip), vehicle: saline with Tween-80 98 % of control | [11] 95 % of control

Cc1c(C)c(Cl)c(C)c(C)c1Cl
inactive: endpoint: mean survival time, dose: 5.0 mg/kg/injection, schedule: Q01DX009 (ip), vehicle: saline with Tween-80 98 % of control | endpoint: mean survival time, dose: 5.0 mg/kg/injection, schedule: Q04DX003 (ip), vehicle: saline with Tween-80 100 % of control | endpoint: mean survival time, dose: 10.0 mg/kg/injection, schedule: Q01DX009 (ip), vehicle: saline with Tween-80 104 % of control | endpoint: mean survival time, dose: 10.0 mg/kg/injection, schedule: Q04DX003 (ip), vehicle: saline with Tween-80 100 % of control | endpoint: mean survival time, dose: 20.0 mg/kg/injection, schedule: Q01DX009 (ip), vehicle: saline with Tween-80 98 % of control | endpoint: mean survival time, dose: 20.0 mg/kg/injection, schedule: Q04DX003 (ip), vehicle: saline with Tween-80 105 % of control

CC1=CCc2c(c(NS(=O)(=O)c3ccccc3)c3ccccc3c2NS(=O)(=O)c2ccccc2)C1
inactive: endpoint: mean survival time, dose: 37.5 mg/kg/injection, schedule: Q01DX001 (ip), vehicle: saline sonified 95 % of control | endpoint: mean survival time, dose: 75.0 mg/kg/injection, schedule: Q01DX001 (ip), vehicle: saline sonified 96 % of control | endpoint: mean survival time, dose: 150.0 mg/kg/injection, schedule: Q01DX001 (ip), vehicle: saline sonified 89 % of control

CCCCN(CCCC)CC(O)c1cc(-c2c(Cl)cccc2Cl)nc2c(Cl)cc(Cl)cc12 (stereo not drawn)
inactive: [11] 86 % of control | endpoint: mean survival time, dose: 200.0 mg/kg/injection, schedule: Q04DX003 (ip), vehicle: saline with Tween-80 93 % of control | endpoint: mean survival time, dose: 400.0 mg/kg/injection, schedule: Q04DX003 (ip), vehicle: saline with Tween-80 96 % of control

NC(=O)N(CCCl)N=O
inactive: endpoint: mean survival time, dose: 4.0 mg/kg/injection, schedule: Q01DX007 (ip), vehicle: saline 105 % of control | endpoint: mean survival time, dose: 4.0 mg/kg/injection, schedule: Q01DX009 (ip), vehicle: saline 101 % of control
active: endpoint: mean survival time, dose: 1.0 mg/kg/injection, schedule: Q01DX007 (ip), vehicle: saline 292 % of control | endpoint: mean survival time, dose: 1.0 mg/kg/injection, schedule: Q01DX009 (ip), vehicle: saline 273 % of control | endpoint: mean survival time, dose: 1.0 mg/kg/injection, schedule: Q03DX003 (ip), vehicle: saline 187 % of control | endpoint: mean survival time, dose: 1.0 mg/kg/injection, schedule: Q04DX003 (ip), vehicle: saline 188 % of control | endpoint: mean survival time, dose: 2.0 mg/kg/injection, schedule: Q01DX007 (ip), vehicle: saline 242 % of control | endpoint: mean survival time, dose: 2.0 mg/kg/injection, schedule: Q01DX009 (ip), vehicle: saline 220 % of control | endpoint: mean survival time, dose: 2.0 mg/kg/injection, schedule: Q03DX003 (ip), vehicle: saline 286 % of control | endpoint: mean survival time, dose: 2.0 mg/kg/injection, schedule: Q04DX003 (ip), vehicle: saline 284 % of control | endpoint: mean survival time, dose: 4.0 mg/kg/injection, schedule: Q04DX003 (ip), vehicle: saline 308 % of control

CCOC(OCC)/C(C)=N/[N+](C)(C)C
inactive: endpoint: mean survival time, dose: 75.0 mg/kg/injection, schedule: Q01DX001 (ip), vehicle: saline 107 % of control | endpoint: mean survival time, dose: 150.0 mg/kg/injection, schedule: Q01DX001 (ip), vehicle: saline 98 % of control

CCOC(=O)C(C(=O)OCC)=C1CCC(=O)O1
inactive: [12] 111 % of control | [13] 90 % of control

CN(C)c1ccc(/C=N/NC(=O)CC2CCCCC2)cc1
inactive: [2] 90 % of control | [3] 93 % of control | [4] 93 % of control

OC(c1ccccc1)C1CCN(Cc2ccccc2)CC1 (stereo not drawn)
inactive: [11] 96 % of control

CN(C)CCCNCCCCNCCCN(C)C
inactive: [1] 102 % of control | endpoint: mean survival time, dose: 100.0 mg/kg/injection, schedule: Q04DX003 (ip), vehicle: saline 96 % of control | endpoint: mean survival time, dose: 200.0 mg/kg/injection, schedule: Q01DX009 (ip), vehicle: saline 102 % of control | endpoint: mean survival time, dose: 200.0 mg/kg/injection, schedule: Q04DX003 (ip), vehicle: saline 101 % of control | endpoint: mean survival time, dose: 400.0 mg/kg/injection, schedule: Q04DX003 (ip), vehicle: saline 106 % of control

CN(C)P1(=O)OCC(C(C)(C)C)CO1 (stereo not drawn)
inactive: endpoint: mean survival time, dose: 25.0 mg/kg/injection, schedule: Q04DX002 (ip), vehicle: saline with Tween-80 101 % of control and 91 % of control | endpoint: mean survival time, dose: 50.0 mg/kg/injection, schedule: Q04DX002 (ip), vehicle: saline with Tween-80 97 % of control and 94 % of control | [12] 86 % of control and 94 % of control and 100 % of control

Cc1cccc(NC(=O)COc2ccc(Cl)cc2C)c1
inactive: [12] 110 % of control | [13] 94 % of control | endpoint: mean survival time, dose: 400.0 mg/kg/injection, schedule: Q04DX002 (ip), vehicle: saline with Tween-80 98 % of control
